Measured values taken from patent US20250152528A1, “RAPID RELIEF SPRAY” (HALEON US HOLDINGS LLC, priority 2022, published 2025).
Counter-ions that a name gives are not always drawn.

Assays:
[1] = Two weak acid combinations with lidocaine citrate: pH, precipitation and stability at 4° C. for 3 months; details: for Observation: appearance of solution; for Time to Lidocaine Citrate Precipitation: kept at 4° C. for 3 months; for pH: lidocaine citrate solution (25 wt. % ethanol, 15 wt. % glycerin, 2.5 wt. % propylene glycol) with 2 wt. % acidifying agent; for colour of solution after change from clear: ambient conditions
Method: The pH was then measured, and stability was tested by keeping the resulting solutions at 4° C. for 3 months.

[2] = has been observed; in aqueous solutions; cited from earlier work
[3] = cited from earlier work
[4] = 5.0 wt. % lidocaine free base, 3.6 wt. % citric acid, 15 wt. % glycerin, 25 wt. % ethanol, water; pH adjusted between 4.5 to 3.5 with excess citric acid at 25° C.
[5] = Crystallization inhibitors and free base lidocaine crystallization in low pH solutions; format: physicochemical; details: 5.0 wt. % lidocaine free base, Example 1 composition; 0.5, 1.0, 2.0 wt. % Kollidon VA 64, PVP K-90, PVP K-25 or PVP K-30; pH=3.5 and pH=4 by excess citric acid; 24 samples
[6] = 5 wt. % lidocaine free base in water with 24 wt. % isopropyl alcohol, 54 wt. % ethanol, or 10 wt. % isopropyl alcohol and 20 wt. % ethanol; pH 4.0 and 3.5 by excess citric acid
[7] = 2% acidifying agent, pH range of 4.2 to 3.3

Compound	Observation ([1]; 2 wt. % acidifying agent)	Time to Lidocaine Citrate Precipitation ([1]; 2 wt. % acidifying agent)	pH [1]	also measured
CC(=O)O [Acetic Acid]	Clear	Not observed	4.00	–
O=C(O)CCCCC(=O)O [Adipic Acid]	–	–	–	prevention of lidocaine citrate precipitation ([1]; 5% acidifying agent): did not prevent precipitation; Observation ([1]; 5% acidifying agent): Clear; Time to Lidocaine Citrate Precipitation ([1]; 5% acidifying agent): 2 weeks
O=C1O[C@H]([C@@H](O)CO)C(O)=C1O [Ascorbic acid]	–	–	–	prevention of lidocaine citrate precipitation ([1]; 5% acidifying agent): prevented lidocaine citrate precipitation; colour of solution after change from clear ([1]; 5% acidifying agent): orange; Observation ([1]; 5% acidifying agent): Oxidized; Time to Lidocaine Citrate Precipitation ([1]; 5% acidifying agent): Not observed
O=C(O)/C=C/C(=O)O [Fumaric acid]	Oxidized	Not observed	3.72	colour of solution after change from clear ([1]; 2% acidifying agent): pale yellow solutions; prevention of lidocaine citrate precipitation [1, 7]: prevented lidocaine citrate precipitation
O=C(O)[C@H](O)[C@@H](O)C(=O)O [L-Tartaric acid]	Clear	Not observed	3.71	–
CC(O)C(=O)O (stereo not shown) [Lactic acid]	Clear	Not observed	4.05	–
O=C(O)/C=C\C(=O)O [Maleic acid]	Oxidized	Not observed	3.32	colour of solution after change from clear ([1]; 2% acidifying agent): pale yellow solutions; prevention of lidocaine citrate precipitation [1, 7]: prevented lidocaine citrate precipitation
O=C(O)CC(O)C(=O)O (stereo not shown) [Malic Acid]	Clear	Not observed	3.93	amount at which irritant to a healthy skin [2]: ≥ 5 wt. %
CNC[C@H](O)c1cccc(O)c1 [Phenylephrine]	–	–	–	pH of solutions in which stable ([3]; background statement): ≤ 4.0
O=C(O)CCC(=O)O [Succinic acid]	Clear	Not observed	4.23	–
CCN(CC)CC(=O)Nc1c(C)cccc1C [lidocaine free base, lidocaine]	–	–	–	pH at which precipitation of lidocaine starts [4]: 4.0; lidocaine crystallization with crystallization inhibitors [5]: thick layer of lidocaine crystallization
CNC[C@H](O)c1cccc(O)c1 [phenylephrine HCl]	–	–	–	pH of solutions in which unstable ([3]; approximately): > 4
lidocaine citrate	–	–	–	crystallization in aqueous alcohol cosolvents [6]: crystallized out of all samples as an opaque layer; pH of lower pH solutions in which the salt crystallizes out (citrate salt generated in situ): ≤ 4.5
lidocaine malate	–	–	–	crystallization at low pH on storage (1:1 molar lidocaine free base and malic acid in water, excess malic acid to pH 3.6, several weeks at 4° C.): No lidocaine malate crystallization was observed
